Results from paper PMC10294832, “Investigation of Naphthyl–Polyamine Conjugates as Antimicrobials and Antibiotic Enhancers” (Antibiotics, 2023).
Values after ≈ are worked out from the molar mass of the structure shown. Values joined by “and” are separate entries in the source; they are usually repeats but may differ in a detail not shown here. Identical values can stand only once.

Legend:
[1] = test system: S. aureus (ATCC 25,923 or ATCC 29213); parameters: method as in PMID 36982955; details: earlier work; cited from earlier work
E. coli (ATCC 25922) [2] = test system: E. coli (ATCC 25922); parameters: method as in PMID 36982955; details: earlier work; cited from earlier work
[3] = test system: P. aeruginosa (ATCC 27853); parameters: method as in PMID 36982955; details: earlier work; cited from earlier work
MRSA (ATCC 43300) [4] = test system: MRSA (ATCC 43300); parameters: method as in PMID 36982955; details: earlier work; cited from earlier work
E. coli (ATCC 25922) [5] = experiment: Enhancement of erythromycin activity; assay type: cell-based, Escherichia coli; details: for Eryth/E.c: concentration required to restore erythromycin activity (combination MIC): erythromycin fixed at 10.9 µM (8 µg/mL), E. coli (ATCC 25922); for Eryth/E.c fold change: ratio between intrinsic MIC of test compound and combination MIC, erythromycin 10.9 µM, E. coli
Protocol: Restoring enhancer concentrations were determined using previously reported protocols.

[6] = test system: K. pneumoniae (ATCC 700603); experiment: Antimicrobial MIC, K. pneumoniae; assay type: cell-based; details: Klebsiella pneumoniae, ATCC700603, mean (n = 2)
C. albicans (ATCC 90028) = experiment: Antifungal MIC, C. albicans; assay type: cell-based; details: Candida albicans, ATCC90028, mean (n = 2)
Outline: (§1)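 Antifungal values reflect testing at The University of Queensland's open antimicrobial discovery facility by its standard protocols. Antibacterial MICs were measured in-house, alongside reference antibiotics, by a published method.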

[7] = test system: P. aeruginosa (PAO1 or ATCC 27853); experiment: Antimicrobial MIC, P. aeruginosa; assay type: cell-based; details: Pseudomonas aeruginosa; P. aeruginosa (PAO1 or ATCC 27853); mean (n = 3); read-out: MIC P. a
Outline: as §1

MRSA (ATCC 43300) [8] = experiment: Antimicrobial MIC, MRSA; assay type: cell-based, methicillin-resistant Staphylococcus aureus; details: Staphylococcus aureus, MRSA (ATCC 43300); mean (n = 2); read-out: MIC MRSA
E. coli (ATCC 25922) [9] = experiment: Antimicrobial MIC, E. coli; assay type: cell-based, Escherichia coli; details: mean (n = 2)
Outline: as §1

human red blood cells = experiment: Hemolytic assay; assay type: cell-based; details: concentration at 10% hemolytic activity on human red blood cells; mean (n = 2)
Protocol: Hemolysis assays were conducted using the protocols previously reported.

[10] = test system: C. neoformans (ATCC 208821); experiment: Antifungal MIC, C. neoformans; assay type: cell-based, Cryptococcus neoformans; details: Cryptococcus neoformans, ATCC208821, C. neoformans (ATCC 208821); mean (n = 2)
Outline: as §1

[11] = test system: S. aureus (ATCC 25,923 or ATCC 29213); experiment: Antimicrobial MIC, S. aureus; assay type: cell-based, Staphylococcus aureus; details: Staphylococcus aureus, mean (n = 3)
Outline: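 MICs for the […] bacteria came from an in-house susceptibility test run to an earlier published protocol. The yeasts were screened externally at CO-ADD, University of Queensland, under that facility's standard procedures.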

[12] = test system: HEK293 human embryonic kidney cells; experiment: Cytotoxicity assay; assay type: cell-based; details: concentration at 50% cytotoxicity on HEK293 cells; mean (n = 2)
Protocol: (§2) Cytotoxicity assays were conducted using the protocols previously reported.

Cytotoxicity assay = assay type: cell-based, human; details: human, HEK293 human embryonic kidney cells, concentration at 50% cytotoxicity on HEK293 cells; mean (n = 2)
Protocol: as §2

[13] = test system: A. baumannii (ATCC 19606); experiment: Antimicrobial MIC, A. baumannii; assay type: cell-based, Acinetobacter baumannii; details: Acinetobacter baumannii, ATCC19606, A. baumannii (ATCC 19606); mean (n = 2)
[14] = test system: P. aeruginosa (ATCC 27853); experiment: Enhancement of doxycycline activity; assay type: cell-based, Pseudomonas aeruginosa; details: for Concentration of test compound required to restore doxycycline activity / Dox/P.a: concentration required to restore doxycycline activity (combination MIC): P. aeruginosa (ATCC 27853); for Dox/P.a: concentration required to restore doxycycline activity (combination MIC): doxycycline fixed at 4.5 µM (2 µg/mL); for Dox/P.a fold change: ratio between intrinsic MIC of test compound and combination MIC, doxycycline 4.5 µM, P. aeruginosa
MRSA (CF-Marseille) [15] = experiment: Minimum bactericidal concentration test; assay type: cell-based, methicillin-resistant Staphylococcus aureus; details: Staphylococcus aureus, same value as MIC
Protocol: (§3) To conduct a detailed analysis of the antibacterial activity and initial assessment of the mechanism of action, analogue 20f was selected due to its strong antibacterial properties, and because it was devoid of any observed cytotoxic or hemolytic effects. To evaluate the kinetics of antibacterial activity, real-time growth inhibition curves were measured for two Gram-positive bacteria (S. aureus (ATCC 25923), MRSA (CF-Marseille)) and the Gram-negative bacterium E. coli (ATCC 25922). […] These values corresponded to the inhibitory concentrations observed at the 18-hour mark in the real-time growth inhibition curve plots.
(§4) MBC’s were determined following previously reported protocols.

S. aureus (ATCC 25923) [16] = experiment: Minimum bactericidal concentration test; assay type: cell-based; details: Staphylococcus aureus, ATCC25923, same value as MIC
Protocol: as §3, §4

E. coli (ATCC 25922) [17] = experiment: Minimum bactericidal concentration test; assay type: cell-based; details: Escherichia coli, ATCC25922, same value as MIC
Protocol: as §3, §4

MRSA (CF-Marseille) [18] = experiment: Real-time growth inhibition curves / MIC; assay type: cell-based, methicillin-resistant Staphylococcus aureus; details: Staphylococcus aureus, 18-hour mark of real-time growth curve
Protocol: as §3
(§5) Solutions of compound 20f at concentrations of 2, 4, and 16 µg/mL were each tested in triplicate against S. aureus (ATCC 25923), MRSA (CF-Marseille), and E. coli (ATCC 25922) following previously reported protocols.

S. aureus (ATCC 25923) [19] = experiment: Real-time growth inhibition curves / MIC; assay type: cell-based; details: Staphylococcus aureus, ATCC25923, 18-hour mark of real-time growth curve
Protocol: as §3, §5

E. coli (ATCC 25922) [20] = experiment: Real-time growth inhibition curves / MIC; assay type: cell-based; details: Escherichia coli, ATCC25922, 18-hour mark of real-time growth curve
Protocol: as §3, §5

E. coli = test system: E. coli; parameters: method as in PMID 15225864; details: novobiocin and erythromycin; weak effect; cited from earlier work
[21] = Escherichia coli, ATCC25922, E. coli (ATCC 25922)

Row | SMILES | Eryth/E.c: concentration required to restore erythromycin activity (combination MIC) (E. coli (ATCC 25922) [5]) [µM] | Eryth/E.c fold change (E. coli (ATCC 25922) [5]) [fold] | MIC [6] [µM] | MIC (C. albicans (ATCC 90028)) [µM] | MIC [7] [µM] | MIC (MRSA (ATCC 43300) [8]) [µM] | MIC (E. coli (ATCC 25922) [9]; [21]) [µM] | Hemolysis HC10 (human red blood cells) | MIC [10] [µM] | MIC [11] [µM] | IC50 (Cytotoxicity assay) [µM] | MIC [13] [µM] | melting point [°C] | Dox/P.a: concentration required to restore doxycycline activity (combination MIC) [14] [µM] | Dox/P.a fold change [14] [fold] | other results
1 | O=C(CC(c1ccccc1)c1ccccc1)NCCCNCCCCCCCCNCCCNC(=O)CC(c1ccccc1)c1ccccc1 [Compound 6] |  |  |  |  |  |  |  |  |  |  |  |  |  |  |  | MIC Staphylococcus aureus [1]: 3.13 µM (≈ 2.11 µg/mL); MIC Escherichia coli (E. coli (ATCC 25922) [2]): 2.2 µM (≈ 1.48 µg/mL); MIC in combination, doxycycline vs. P. aeruginosa [3]: 12.5 µM; fold increase, doxycycline vs. P. aeruginosa [3]: 4 fold; MIC MRSA (MRSA (ATCC 43300) [4]): ≤ 0.28 µM
2 | O=C(CC(c1ccccc1)(c1ccccc1)c1ccccc1)NCCCNCCCCCCCCNCCCNC(=O)CC(c1ccccc1)(c1ccccc1)c1ccccc1 [Compound 7] |  |  |  |  |  |  |  |  |  |  |  |  |  |  |  | MIC Staphylococcus aureus [1]: 3.13 µM (≈ 2.59 µg/mL); MIC Escherichia coli (E. coli (ATCC 25922) [2]): 7.6 µM (≈ 6.29 µg/mL); MIC MRSA (MRSA (ATCC 43300) [4]): ≤ 0.24 µM
3 | O=C(NCCCNCCCCNCCCNC(=O)c1ccc2ccccc2c1)c1ccc2ccccc2c1.O=C(O)C(F)(F)F.O=C(O)C(F)(F)F [Compound 19a, N^1,N^4-Bis(3-(2-naphthamido)propyl)butane-1,4-diaminium 2,2,2-trifluoroacetate] | 4.2 | 64 | > 43.3 | > 43.3 | 677 | 43.3 | 271 | >43.3 µM | 21.7 | 34 | 26 | > 43.3 | 132 to 135 | 16.9 |  | IC50 [12]: 26.4 µM; Concentration of test compound required to restore doxycycline activity ([14]; doxycycline concentration 2 µg/mL): 16.9 µM; Concentration of test compound required to restore doxycycline activity ([14]; doxycycline concentration 4 µg/mL): 8.5 µM; Concentration of test compound required to restore doxycycline activity ([14]; doxycycline concentration 6 µg/mL): 8.5 µM; Concentration of test compound required to restore doxycycline activity ([14]; doxycycline concentration 8 µg/mL): 4.2 µM
4 | O=C(CCC(=O)Nc1ccc2ccccc2c1)NCCCNCCCCCCCCCCCCNCCCNC(=O)CCC(=O)Nc1ccc2ccccc2c1.O=C(O)C(F)(F)F.O=C(O)C(F)(F)F [Compound 20f, N^1,N^12-Bis(3-(4-(naphthalen-2-ylamino)-4-oxobutanamido)propyl)dodecane-1,12-diaminium 2,2,2-trifluoroacetate] | 3.15 | 2 | > 32 | > 32 | > 100 | ≤ 0.25 | 6.3 to 12.5 | >32.2 µM | ≤ 0.25 | 3.12 | > 32.2 | > 32 |  | 12.6 | > 8 | MBC (MRSA (CF-Marseille) [15]): 3.13 µg/mL and 3.15 µM; MIC (E. coli (ATCC 25922) [9]; E. coli (ATCC 25922)): 6.3 µM; MBC (S. aureus (ATCC 25923) [16]): 3.15 µM and 3.13 µg/mL; MBC (E. coli (ATCC 25922) [17]): 6.29 µM and 6.25 µg/mL; MIC (MRSA (CF-Marseille) [18]): 3.15 µM and 3.13 µg/mL; MIC (S. aureus (ATCC 25923) [19]): 3.15 µM and 3.13 µg/mL; MIC (E. coli (ATCC 25922) [20]): 6.29 µM and 6.25 µg/mL
5 | O=C(CCC(=O)Nc1ccc(-c2ccccc2)cc1)NCCCNCCCCCCCCNCCCNC(=O)CCC(=O)Nc1ccc(-c2ccccc2)cc1.O=C(O)C(F)(F)F.O=C(O)C(F)(F)F [Compound 21d, N^1,N^8-Bis(3-(4-([1,1’-biphenyl]-4-ylamino)-4-oxobutanamido)propyl)octane-1,8-diaminium 2,2,2-trifluoroacetate] | 300 | 1 | > 32.4 | > 32.4 | 300 | 0.506 | 300 | >32.4 µM | > 32.4 | 300 | > 32.4 | > 32.4 | 182 to 184 | 300 | 1 | 
6 | O=C(CCC(=O)Nc1ccc(-c2ccccc2)cc1)NCCCNCCCCCCCCCCNCCCNC(=O)CCC(=O)Nc1ccc(-c2ccccc2)cc1.O=C(O)C(F)(F)F.O=C(O)C(F)(F)F [Compound 21e, N^1,N^10-Bis(3-(4-([1,1’-biphenyl]-4-ylamino)-4-oxobutanamido)propyl)decane-1,10-diaminium 2,2,2-trifluoroacetate] | 300 | 1 | > 31.5 | 31.5 | 300 | 0.246 | 300 | 6.3 µM and 6.32 µM | 15.7 | 300 | > 31.5 | > 31.5 | 184 to 186 | 300 | 1 | 
7 | NCCCNCCCCNCCCNC(=O)Cc1cccc2ccccc12 [Compound 22, naphthylacetylspermine] |  |  |  |  |  |  |  |  |  |  |  |  |  |  |  | doses rendering E. coli sensitive to hydrophobic antibiotics (E. coli): 64 to 128 µg/mL
